Assay results taken from patent US20240165280A1, “METHODS FOR TREATMENT OF CANCERS” (Fusion Pharmaceuticals Inc., priority 2021, published 2024).
Entries after “also recorded” stand apart in the source; their conditions may differ.

Tests used:
[1] = Acute toxicity in mice with [^177Lu]-3BP-227 therapy (earlier studies); format: in vivo; details: earlier [^177Lu]-3BP-227 therapy studies in mice
293 tumor xenografts = assay: Uptake into 293 tumor xenografts, which do not express NTSR1; format: in vivo; details: 293 tumor xenografts (no NTSR1 expression)
Source text: (§1) The compounds to be evaluated are [^177Lu]-3BP-227 and [^225Ac]-3BP-227, which are the ^177Lu and ^225Ac radiolabelled versions, respectively, of the compound of Formula I (also referred as 3BP-227). NTSR1 is overexpressed in several types of cancer, e.g., pancreatic ductal adenocarcinoma (PDAC), Ewing's sarcoma and prostate cancer, but it is rarely expressed in normal tissues.

[2] = test system: NTSR1-expressing HT-29 xenograft tumors; assay: Uptake and persistence in NTSR1-expressing HT-29 xenograft tumors; format: in vivo; details: NTSR1-expressing HT-29 xenograft tumors in Nude mice
Source text: as §1

[3] = Tolerability (mouse weight, health status) in the therapy study; format: in vivo, CD-1 Nude mice
Description: (§2) For therapeutic efficacy studies, single doses of 3,885-8,325 MBq/kg of [^177Lu]-3BP-227 (2,100-4,500 μCO or 1.85-5.55 MBq/kg of [^225Ac]-3BP-227 (1-3 μCO were administered to animals bearing HT29 xenografts (average tumor volume=212±46 mm^3), and tumor growth was monitored for 77 days. Mice in the control group were administered vehicle alone (10% ethanol in PBS). Study endpoints included tumor volume measurement and/or impact to animal health status.
A therapy efficacy study of [^177Lu]-3BP-227 and [^225Ac]-3BP-227 was conducted in mice comprising the following: • 1. […] Target dose of radioactivity was 2.1 or 4.5 mCi of [^177Lu]-3BP-227 per mouse, or 1 or 3 μCi of [^225Ac]-3BP-227 per mouse, for radiotherapy groups. • 3. […] For all groups, tumor size and mouse weight were monitored for 34-77 days. Relative tumor volume, relative mouse weight, and tumor regression relative to control were also calculated.
[^177Lu]-3BP-227 will be dissolved in PBS containing 10% ethanol and prepared at a concentration of about 13 mCi/mL and about 25 mCi/mL. […] The length (L) and width (W) of the tumor will be measured three times a week up to day 28, and the tumor volume will be calculated as per Section 13, Data Calculations and Statistical Analysis. […]

HT-29 xenograft tumors = assay: Therapy study of [^177Lu]-3BP-227 and [^225Ac]-3BP-227 in CD-1 Nude mice bearing HT-29 xenograft tumors; format: in vivo; details: for tumor growth inhibition relative to controls: single i.v. dose 4.5 mCi per mouse (8,325 MBq/kg), HT-29 xenografts, monitored 34 days
Description: as §2
A therapy efficacy study of [^177Lu]-3BP-227 and [^225Ac]-3BP-227 was conducted in mice comprising the following: • 1. 30 CD-1 Nude mice (5-6 week-old females; Charles River Laboratories) bearing subcutaneous HT-29 (ATCC #HTB-38; colorectal adenocarcinoma) tumor xenografts distributed amongst 5 groups (n=6). There were two groups each treated with [^177Lu]-3BP-227 or [^225Ac]-3BP-227 and 1 control group (below). • 2. Target dose of radioactivity was 2.1 or 4.5 mCi of [^177Lu]-3BP-227 per mouse, or 1 or 3 μCi of [^225Ac]-3BP-227 per mouse, for radiotherapy groups. • 3. Mice in the control group were administered vehicle alone (10% ethanol in PBS). • 4. For all groups, tumor size and mouse weight were monitored for 34-77 days. Relative tumor volume, relative mouse weight, and tumor regression relative to control were also calculated.
Perform an in vivo therapy study to determine the efficacy of [^177Lu]-3BP-227 and [^225Ac]-3BP-227, for the treatment of subcutaneous HT-29 xenograft tumors in nude mice.
Groups of CD-1 Nude female mice (five groups; n=6 each, 30 total) will be administered radiolabelled test articles via intravenous injection once.
[^177Lu]-3BP-227 will be dissolved in PBS containing 10% ethanol and prepared at a concentration of about 13 mCi/mL and about 25 mCi/mL. [^177Lu]-3BP-227 compounds would be administered (in 200 μL) at a dose of 2.1 mCi (about 13 mCi/mL stock) or 4.5 mCi (about 25 mCi/mL stock) to two groups of animals (n=12 total). [^225Ac]-3BP-227 will be dissolved in PBS containing 10% ethanol and prepared at a concentration of 5 μCi/mL and 15 μCi/mL. [^225Ac]-3BP-227 compounds will be administered (in 200 μL) at a dose of 1 μCi (5 μCi/ml stock) or 3 μCi (15 μCi/mL stock) to two groups of animals (n=12 total). […] The length (L) and width (W) of the tumor will be measured three times a week up to day 28, and the tumor volume will be calculated as per Section 13, Data Calculations and Statistical Analysis. […]
1. Tumor volume is calculated according to the formula: TV=(L×W^2)×0.52, where L is the longest diameter (length) of the tumor and W is the shortest diameter (width) of the tumor. Tumor volume at day n is expressed as relative tumor volume (RTV) according to the following formula: RTV=TVn/TV0, where TVn is the tumor volume at day n, and TV0 is the tumor volume at day 0. […]

HT-29 xenografts [4] = assay: Earlier [^177Lu]-3BP-227 therapy study (Study 1), HT-29 xenografts in nude mice; format: in vivo
HT-29 xenografts [5] = assay: Earlier [^177Lu]-3BP-227 therapy study (Study 2), HT-29 xenografts; format: in vivo, nude mice; details: 4.5 mCi per mouse, tumor volume about 450 mm^3 at injection

In the case of `COc1cccc(OC)c1-c1cc(C(=O)NC2(C(=O)O)C3CC4CC(C3)CC2C4)nn1-c1ccc(C(=O)N(C)CCCN(C)CCCN(C)C(=O)CN2CCN(CC(=O)[O-])CCN(CC(=O)[O-])CCN(CC(=O)[O-])CC2)cc1C(C)C.[177Lu+3]` (stereo not shown) [[^177Lu]-3BP-227], the acute toxicity [1] is reported as “no observed acute toxicity”, the tumor uptake (293 tumor xenografts) is reported as “minimal uptake” and the “tumor uptake and persistence” value [2] is reported as “good uptake and persistence”. The “weight gain compared with vehicle control” value ([3]; 2.1 and 4.5 mCi groups, 34 days) was “indistinguishable weight gain”, the treatment-related toxicities ([3]; all dose groups of the studies) was “no treatment-related toxicities observed” and the “frequency of significant tumor regrowth” value (HT-29 xenograft tumors; 4.5 mCi [^177Lu]-3BP-227 versus 1 μCi [^225Ac]-3BP-227 group) was “significant tumor regrowth was more frequent”. The “duration of tumor growth inhibition relative to controls” value (HT-29 xenograft tumors; 4.5 mCi group, whole monitoring period) was 34 days, the “tumor growth inhibition relative to controls” value (HT-29 xenograft tumors) was “inhibition in the growth of tumors; also recorded: significant and durable tumor growth inhibition” and the “tumor growth inhibition relative to controls” value (HT-29 xenograft tumors; listed as [^177Lu]3BP-227) was “efficacious at suppressing tumor growth”. For the same molecule, the “inhibition of tumor growth” value (HT-29 xenografts [4]; about 2.1 mCi per mouse) was “somewhat inhibited tumor growth”, the “suppression of tumor growth” value (HT-29 xenografts [4]; about 4.5 mCi per mouse, tumor volume about 200 mm^3 at injection) was “effective as a therapy for suppressing tumor growth” and the “duration of tumor growth suppression” value (HT-29 xenografts [4]; particularly evident at about 4.5 mCi per mouse) was “at least 60 days”. The “suppression of HT-29 tumor growth” value (HT-29 xenografts [5]) was “not efficacious at suppressing HT-29 tumor growth”.
